Laboratory results reported in patent US20230190750A1, “METHODS OF TREATING AND PREVENTING CANCER DRUG RESISTANCE” (Genentech, Inc., priority 2014, published 2023).

Columns and labels:
Format in all cases: cell-based
CHL-1 melanoma cells = assay: Single and dual drug treatment, cell growth of CHL-1 melanoma cells; conditions: growth observed on days 7, 14, 21, 28, 35
Description: FIG. 11.|A drug screen was performed on CHL-1 melanoma cells. The cells were treated with DMSO (control), GDC-0973 (i.e., cobimetinib), GDC-0032 (PI3K-Alpha Inhibitor), BFJ-398 (pan FGFR inhibitor), GDC-0973 and GDC-0032, or GDC-0973 and BGJ-398.
(§1) Experiments were performed on CHL-1 melanoma cells to determine the effect of single and dual drug treatment on cell growth (FIG. 11). The cells were treated with DMSO (control), GDC-0973, GDC-0032, BGJ398, GDC-0973 and GDC-0032, or GDC-0973 and BGJ398. Cell growth was observed on days 7, 14, 21, 28, and 35, or until the cells had reached near 100% confluency. […] In contrast, cells treated with the combination treatment of GDC-0973 and GDC-0032 or the combination of GDC-0973 and BGJ398 never reached confluency through day 35.

624 MEL cells = assay: Reactivation of MAPK and PI3K pathways by secreted growth factors in presence of PLX4032; conditions: 5 μM PLX4032 24 hours, 50 ng/mL factor 10 minutes
Description: (§2) FIG. 1A-D.| Factors secreted by tumor cells and/or the tumor microenvironment contribute to drug resistance through activation of cell-surface receptors. […] D, Secreted growth factors which promote resistance to PLX4032 reactivate MAPK and PI3K pathways. Activation of MAPK by FGF2, MAPK and AKT by HGF and AKT by NRG1 and SCF are shown in 624 MEL cells in the presence of PLX4032. Treatments were 5 μM PLX4032 for 24 hours and 50 ng·mL FGF2, HGF, NRGB1, or SCF for 10 minutes.

[1] = tested on: pERK in SK MEL 24 VemR cells; assay: Western blot of treated SK MEL 24 VemR cells; conditions: GDC-0973 0.5 μM, BGJ398 1 μM, 24 hours
Description: FIG. 14.|Single resistant SK MEL 24 VemR (SK MEL 24 cells resistant to vemurafenib) were treated with vemurafenib (i.e., PLX4032), BGJ398, and/or cobimetinib (i.e., GDC-0973). The cells were then processed and the presence/absence of FGFR1, pAKT, pMEK, pERK, PARP, pBAD, BIM, and βactin (control) were detected by Western blot. A melanoma cell line was made that is resistant to vemurafenib (“SK MEL 24 VemR”). The SK MEL 24 VemR cells were treated with vemurafenib (PLX4032), BGJ398, GDC-0973, BGJ398 and GDC-0973, vemurafenib and BGJ398, vemurafenib and GDC-0973, or vemurafenib, BGJ398, and GDC-0973. In all treatment conditions, the concentration of vemurafenib was 5 μM, the concentration of BGJ398 was 1 μM, and the concentration of GDC-0973 was 0.5 μM. The exposure time for all treatments was 24 hours. The cells were then processed and FGFR1, pAKT, pMEK, pERK, PARP, pBAD, BIM, and P-actin were probed for using Western blot.

melanoma cell line = assay: Secreted factor screen for resistance to B-raf and MEK antagonists in melanoma cell lines
Description: as §2

[2] = tested on: HER2+ breast cancer cell lines; assay: FGF2 rescue (drug resistance) in HER2+ breast cancer cell lines; conditions: of 10 HER2+ breast cancer cell lines
Description: (§3) FIG. 5A-C.| Screen of 10 melanoma cell lines and 10 breast cancer lines was performed to determine the role of FGF signalling in drug resistance. […] C, Summary of FGF receptors, their subfamily, and their ligands.
(§4) FGF signalling and resistance was studied in 10 HER2+ breast cancer cell lines and in 10 B-raf mutant melanoma cell lines (FIG. 5). 7 of the 10 HER2+ breast cancer cell lines were rescued by FGF2 (FIG. 5A). 8 of the 10 B-raf […] were rescued by FGF2 (FIG. 5B). Subsequent analysis determined that 50-70% of the melanoma lines with the V600E mutation were rescued by FGF2 (n=30).

[3] = tested on: B-raf mutant melanoma cell lines; assay: FGF2 rescue (drug resistance) in B-raf mutant melanoma cell lines
Description: as §3, §4

[4] = tested on: HER2+ breast cancer cells; assay: Immunoblot of HER2+ breast cancer cells exposed to FGF2 with or without lapatinib; conditions: FGF2 50 ng/mL for 10 minutes or 24 hours, with or without lapatinib 2 μM
Description: FIG. 6A-B.| FGF2 reactivates key signalling pathways to promote resistance and stimulates sustained activation of downstream signaling. A, An immunoblot of cells exposed to FGF2 for 10 min compared to cells absent exposure. B, An immunoblot of cells exposed to FGF2 for 24 hrs compared to cells absent FGF2 exposure.
Furthermore, it was determined that FGF2 reactivates key signalling pathways to promote resistance (FIG. 6). This was shown in a cell assay wherein HER2+ breast cancer cells were exposed to FGF2 (50 ng/mL) for 10 minutes in the presence or absence of lapatinib (2 μM) (FIG. 6A). Similarly, an assay was performed wherein HER2+ breast cancer cells were exposed to FGF2 (50 ng/mL) for 24 hours in the presence or absence of lapatinib (2 μM) (FIG. 6B).

[5] = tested on: HS 895.T normal skin fibroblast cells; assay: Single and dual drug treatment, cell growth of HS 895.T normal skin fibroblast cells; conditions: growth observed on days 7, 14, 21, 28, 35
Description: FIG. 13.|A drug screen was performed on Hs 895.T normal skin fibroblast cells. The cells were treated with DMSO (control), GDC-0973 (i.e., cobimetinib), GDC-0032 (PI3K-Alpha Inhibitor), BFJ-398 (pan FGFR inhibitor), GDC-0973 and GDC-0032, or GDC-0973 and BGJ-398.
as §1, with “HS 895.T normal skin fibroblast” for “CHL-1 melanoma”, “13).” for “11).”, “The” for “In contrast,”, “GDC-0973, GDC-0032,” for “the combination treatment of”, “GDC-0032, and” for “GDC-0032 or the combination of”

Cc1nc(-c2cn3c(n2)-c2ccc(-c4cnn(C(C)(C)C(N)=O)c4)cc2OCC3)n(C(C)C)n1 [GDC-0032]
day by which cells reached confluency (CHL-1 melanoma cells): ≤ 7 days

SCF: secreted growth factor promoting resistance to PLX4032
pathway activated in the presence of PLX4032 (624 MEL cells): AKT

O=C(c1ccc(F)c(F)c1Nc1ccc(I)cc1F)N1CC(O)([C@@H]2CCCCN2)C1 [GDC-0973, [3,4-Difluoro-2-(2-fluoro-4-iodo-phenylamino)-phenyl]-((S)-3-hydroxy-3-pi-peridin-2-yl-azetidin-1-yl)-methanone]
day by which cells reached confluency (CHL-1 melanoma cells): ≤ 28 days | pERK levels (Western blot) [1]: lower pERK levels

HGF: secreted growth factor promoting resistance to PLX4032
rescue of tumor cells from B-raf and MEK antagonists (melanoma cell line): most broadly and potently | pathway activated in the presence of PLX4032 (624 MEL cells): MAPK and AKT

FGF2: secreted growth factor, FGFR ligand, promotes resistance
number of cell lines rescued by FGF2 [2]: 7 | number of cell lines rescued by FGF2 ([3]; of 10 cell lines (FIG. 5B)): 8 | melanoma lines with the V600E mutation rescued by FGF2 ([3]; subsequent analysis, n=30): 50-70% | activation of downstream signalling [4]: stimulates sustained activation of downstream signalling | rescue of tumor cells from B-raf and MEK antagonists (melanoma cell line): most broadly and potently | pathway activated in the presence of PLX4032 (624 MEL cells): MAPK

CCN1CCN(c2ccc(Nc3cc(N(C)C(=O)Nc4c(Cl)c(OC)cc(OC)c4Cl)ncn3)cc2)CC1 [BGJ398, 3-(2,6-Dichloro-3,5-dimethoxy-phenyl)-1-{6-[4-(4-ethyl-piperazin-1-yl)-phenylamino]-pyrimidin-4-yl}-1-methyl-urea]
day by which cells reached confluency (CHL-1 melanoma cells): ≤ 14 days | day by which cells reached confluency [5]: ≤ 28 days
